Tests used:
[1] = oral, cited from earlier work; for Relative Potency: with reference to cortisol
[2] = 25° C.; cited from earlier work
[3] = Solubility of dexamethasone in water / aqueous medium; format: physicochemical; conditions: aqueous medium such as the tear fluid
Excerpt: In certain embodiments of the present invention, dexamethasone is micronized and may have a D50 particle size of less than about 10 μm and/or a D99 particle size of less than about 50 μm. A specific suitable micronized dexamethasone for use in certain embodiments of the present invention is “Dexamethasone USP micronized” from Pfizer with a D90 particle size of equal to or less than about 5 μm (i.e., the volume portion of particles with a particle size of or below about 5 μm is 90%), and a D98 particle size of equal to or below about 10 μm (i.e., the volume portion of particles with a particle size of equal to or below about 10 μm is 98%). The “D” value such as in “D50” means that the indicated percentage by volume (such as 50 volume-% in D50 etc.) of all particles within the respective bulk material (which has a certain particle size distribution) has a particle size of or below the indicated value, e.g. a D50 particle size of below about 10 μm means that 50 volume-% of the particles have a particle size of or below about 10 μm. The particle size distribution can be commonly measured by methods known in the art, and includes sieving as well as laser diffraction methods. […]
It is believed that release of the glucocorticoid into the tear fluid is determined by the glucocorticoid's solubility in an aqueous environment. […]

Row | SMILES | Equivalent Dose [1] | Relative Potency [1] | solubility in water [2] | solubility [3]
1 | C[C@]12CCC(=O)C=C1CC[C@@H]1[C@@H]2[C@@H](O)C[C@@]2(C)[C@H]1CC[C@]2(O)C(=O)CO [Cortisol (Hydrocortisone), Cortisol] | 20 mg | 1 |  | 
2 | C[C@]12C=CC(=O)C=C1CC[C@H]1[C@@H]3C[C@@H](O)[C@](O)(C(=O)CO)[C@@]3(C)C[C@H](O)[C@@]12F [Triamcinolone] | 4 mg | 5 |  | 
3 | C[C@]12C=CC(=O)C=C1CC[C@@H]1[C@@H]2[C@@H](O)C[C@@]2(C)[C@H]1CC[C@]2(O)C(=O)CO [Prednisolone] | 5 mg | 4 |  | 
4 | C[C@@H]1C[C@H]2[C@@H]3CCC4=CC(=O)C=C[C@]4(C)[C@@]3(F)[C@@H](O)C[C@]2(C)[C@@]1(O)C(=O)CO [Dexamethasone, 9-Fluor-11β,17,21-trihydroxy-16α-methyl-pregna-1,4-dien-3,20-dion] | 0.8 mg |  | approx. 89 mg/L | < 100 µg/mL

— patent publication US12144889B2, “Methods of treating allergic conjunctivitis” (OCULAR THERAPEUTIX, INC., priority 2020, dated 2024)
